“And” between values parts separate entries of the source, which are not always exact repeats. Equal values may be shown once.
Assay: Physical/chemical attributes (calcium, pH, titratable acidity, Brix, Brix/Acid ratio) of calcium fortified orange juice
Format: physicochemical
Set-up: unit not given here
Details: orange juice fortified at 450 mg/100 mL calcium load
Source text: The flavor of orange juice, for example, can be characterized by a unique balance of sweetness resulting from the sugar content and tartness resulting from the acid content. A challenge of fortifying orange juice with nutritionally significant amounts of calcium is maintaining the sweet to tart balance. This balance can be expressed analytically as the Brix to acid ratio, as described above. The Brix component of the ratio is the measure of soluble solids in the beverage often determined by a refractometer. The acid component can be determined by titration with a base such as sodium hydroxide. The Brix to acid ratio is an analytical representation or measure of the sweet to tart taste balance.
A variety of calcium salts, i.e., the calcium components, were evaluated to determine their effects on the Brix-acid ratio. In this evaluation, orange juices fortified with different calcium salts were prepared at 450 mg/100 mL of calcium load. […]
Orange juices fortified with various combinations of calcium salts, i.e. calcium components, were evaluated based on physical/chemical attributes compared to unfortified orange juice.

Compound | Calcium - Juice (48 Hours) | Calcium - Juice (48 Hours) (citrate)
O.O.[Ca+2].[Cl-].[Cl-] [calcium chloride dihydrate] | 206 | 
calcium gluconate monohydrate | 198 | 
N[C@@H](CCC(=O)[O-])C(=O)[O-].O.O.O.O.[Ca+2] [calcium L-glutamate tetrahydrate] | 207 | 
O.O=P([O-])([O-])OCC(O)CO.[Ca+2] (stereo not shown) [calcium glycerophosphate monohydrate] | 187 | 
CC(O)C(=O)O.O=C(O)[C@H](O)[C@@H](O)[C@H](O)[C@H](O)CO.O=C([O-])CC(O)(CC(=O)[O-])C(=O)O.[Ca+2] [calcium lactate gluconate citrate] |  | 200 and 202
O.O.O.O=C([O-])/C=C/C(=O)[O-].[Ca+2] [calcium fumarate trihydrate] | 202 | 
O=C([O-])[O-].[Ca+2] [calcium carbonate] | 200 | 
CC(O)C(=O)[O-].CC(O)C(=O)[O-].O.O.O.O.O.[Ca+2] (stereo not shown) [calcium lactate pentahydrate] | 204 | 
O.O.O=P([O-])([O-])O.[Ca+2] [dicalcium phosphate dihydrate] | 181 | 
O=P([O-])([O-])[O-].O=P([O-])([O-])[O-].[Ca+2].[Ca+2].[Ca+2] [tricalcium phosphate (fine), tricalcium phosphate] | 197 | 
O.O=P([O-])(O)O.O=P([O-])(O)O.[Ca+2] [monocalcium phosphate monohydrate] | 207 | 
O=P([O-])([O-])O.[Ca+2] [dicalcium phosphate anhydrous] | 203 | 
O=C([O-])CC(O)(CC(=O)[O-])C(=O)[O-].O=C([O-])CC(O)(CC(=O)[O-])C(=O)[O-].[Ca+2].[Ca+2].[Ca+2] [tri-calcium citrate] | 177 | 
O.O.O=C([O-])[C@H](O)[C@@H](O)C(=O)[O-].[Ca+2] [calcium L-tartrate dihydrate] | 140 | 
O=P([O-])([O-])[O-].O=P([O-])([O-])[O-].[Ca+2].[Ca+2].[Ca+2] [tricalcium phosphate] | 182 | 
O.O=C([O-])CCC(=O)[O-].[Ca+2] [calcium succinate monohydrate] | 206 | 
calcium ascorbate dihydrate | 195 | 
O=C[O-].O=C[O-].[Ca+2] [calcium formate] | 206 | 
O=C([O-])CC(O)C(=O)[O-].[Ca+2] (stereo not shown) [calcium malate] | 213 | 

Reference: US20070003672A1, “Tri-part calcium fortified compositions and methods of making the same” (priority 2005, published 2007)
